Experimental data: PubChem BioAssay (NCI)
Several values for one entry are separate records, joined by “and”; a condition that tells them apart may be missing. Identical values can stand only once.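 All cell lines were grown in 96-well plates and treated with compound for 48 hours. The concentration for 50% growth inhibition is given as GI50. TGI: concentration producing complete growth inhibition.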

Columns and labels:
Experiment in all cases: DTP human tumour cell line panel, 48 h
A549 NSCLC = test system: A549 NSCLC
UACC-257 melanoma = test system: UACC-257 melanoma
SNB-78 CNS = test system: SNB-78 CNS
SF-268 CNS = test system: SF-268 CNS
ACHN renal = test system: ACHN renal
RXF 393 renal = test system: RXF 393 renal
SF-295 CNS = test system: SF-295 CNS
DMS 114 small cell lung = test system: DMS 114 small cell lung
SR leukemia = test system: SR leukemia
SK-MEL-5 melanoma = test system: SK-MEL-5 melanoma

Q: How did the GI50 (A549 NSCLC) turn out when `COC(=O)C12OCC34C(CC5C(C)=CC(=O)C(O)C5(C)C3C(O)C1O)OC(=O)C(OC(=O)CC(C)C)C24` (centres undefined) was run?
A: < 0.0399 µM and 0.05 µM

Q: What about the GI50 (UACC-257 melanoma) of the same molecule?
A: 0.0788 µM and 0.05 µM

Q: What about the GI50 (SNB-78 CNS) of the same molecule?
A: 0.0748 µM and 0.05 µM

Q: What about the GI50 (SF-268 CNS) of the same molecule?
A: 0.0671 µM and 0.05 µM

Q: What about the GI50 (ACHN renal) of the same molecule?
A: 0.0193 µM

Q: What about the TGI (ACHN renal) of the same molecule?
A: 0.3 µM and 0.174 µM

Q: And the GI50 (RXF 393 renal)?
A: 0.0427 µM and 0.05 µM

Q: What about the GI50 (SF-295 CNS) of the same molecule?
A: 0.077 µM

Q: And the GI50 (DMS 114 small cell lung)?
A: 0.133 µM

Q: And the TGI (SR leukemia)?
A: 0.0506 µM

Q: With `O=CN/C=C/c1ccccc1O` as the molecule, how does the TGI (A549 NSCLC) read?
A: > 100 µM

Q: And the TGI (UACC-257 melanoma)?
A: > 100 µM

Q: What about the TGI (SNB-78 CNS) of the same molecule?
A: > 100 µM

Q: What about the TGI (SF-268 CNS) of the same molecule?
A: > 100 µM

Q: What about the TGI (ACHN renal) of the same molecule?
A: > 100 µM

Q: And the TGI (RXF 393 renal)?
A: > 100 µM

Q: What about the TGI (SF-295 CNS) of the same molecule?
A: > 100 µM

Q: What about the TGI (DMS 114 small cell lung) of the same molecule?
A: > 100 µM

Q: What about the TGI (SK-MEL-5 melanoma) of the same molecule?
A: > 100 µM

Q: What about the TGI (SR leukemia) of the same molecule?
A: > 100 µM

Q: With `O=[N+]([O-])c1ccc(C2N3CCCCC3[C@@H]3c4[nH]c5ccccc5c4CCN23)cc1` (some centres undefined) as the molecule, how does the TGI (A549 NSCLC) read?
A: > 100 µM

Q: What about the TGI (UACC-257 melanoma) of the same molecule?
A: 41.2 µM

Q: What about the TGI (SNB-78 CNS) of the same molecule?
A: 21.6 µM

Q: What about the TGI (SF-268 CNS) of the same molecule?
A: 43 µM

Q: And the TGI (ACHN renal)?
A: 43.8 µM

Q: And the TGI (RXF 393 renal)?
A: 18.9 µM

Q: What about the TGI (SF-295 CNS) of the same molecule?
A: > 100 µM

Q: And the TGI (DMS 114 small cell lung)?
A: 22 µM

Q: What about the TGI (SK-MEL-5 melanoma) of the same molecule?
A: 28.2 µM

Q: And the TGI (SR leukemia)?
A: > 100 µM

Q: `O=c1[nH]c(C2CCCCC2)nc2cc(Cl)ccc12` was tested. Which TGI (A549 NSCLC) did it give?
A: > 100 µM

Q: What about the TGI (UACC-257 melanoma) of the same molecule?
A: > 100 µM

Q: And the TGI (SNB-78 CNS)?
A: > 100 µM

Q: What about the TGI (SF-268 CNS) of the same molecule?
A: > 100 µM

Q: What about the TGI (ACHN renal) of the same molecule?
A: > 100 µM

Q: What about the TGI (RXF 393 renal) of the same molecule?
A: > 100 µM

Q: And the TGI (SF-295 CNS)?
A: > 100 µM

Q: What about the TGI (DMS 114 small cell lung) of the same molecule?
A: > 100 µM

Q: What about the TGI (SK-MEL-5 melanoma) of the same molecule?
A: > 100 µM

Q: And the TGI (SR leukemia)?
A: > 100 µM

Q: With `CC(C)(C)C1CCN(C(=O)c2ccccc2)CC1` as the molecule, how does the TGI (A549 NSCLC) read?
A: > 100 µM

Q: And the TGI (UACC-257 melanoma)?
A: > 100 µM

Q: What about the TGI (SNB-78 CNS) of the same molecule?
A: > 100 µM

Q: What about the TGI (ACHN renal) of the same molecule?
A: > 100 µM

Q: And the TGI (RXF 393 renal)?
A: > 100 µM

Q: And the TGI (SF-295 CNS)?
A: > 100 µM

Q: And the TGI (DMS 114 small cell lung)?
A: 98.8 µM

Q: What about the TGI (SK-MEL-5 melanoma) of the same molecule?
A: > 100 µM

Q: What about the TGI (SR leukemia) of the same molecule?
A: > 100 µM

Q: How did the TGI (A549 NSCLC) turn out when `Cc1ccccc1C(C#N)/C(=N/NC(=O)C(=O)NN)C(=O)Nc1cccc(C(F)(F)F)c1` (centres undefined) was run?
A: > 100 µM

Q: And the TGI (UACC-257 melanoma)?
A: > 100 µM

Q: And the TGI (SNB-78 CNS)?
A: > 100 µM

Q: What about the TGI (SF-268 CNS) of the same molecule?
A: > 100 µM

Q: And the TGI (ACHN renal)?
A: > 100 µM

Q: What about the TGI (SF-295 CNS) of the same molecule?
A: > 100 µM

Q: And the TGI (DMS 114 small cell lung)?
A: > 100 µM

Q: And the TGI (SK-MEL-5 melanoma)?
A: > 100 µM

Q: And the TGI (SR leukemia)?
A: > 100 µM

Q: For `O=c1nc2[nH]nc(-c3ccccc3)c2n[nH]1`, which TGI (A549 NSCLC) is on record?
A: > 100 µM

Q: What about the TGI (UACC-257 melanoma) of the same molecule?
A: > 100 µM

Q: And the TGI (SNB-78 CNS)?
A: > 100 µM

Q: What about the TGI (SF-268 CNS) of the same molecule?
A: > 100 µM

Q: What about the TGI (ACHN renal) of the same molecule?
A: > 100 µM

Q: And the TGI (RXF 393 renal)?
A: > 100 µM

Q: And the TGI (SF-295 CNS)?
A: > 100 µM

Q: And the TGI (DMS 114 small cell lung)?
A: > 100 µM

Q: And the TGI (SR leukemia)?
A: > 100 µM

Q: Which TGI (A549 NSCLC) does the source give for `N#Cc1ccccc1/C=N/O` here?
A: > 100 µM

Q: And the TGI (UACC-257 melanoma)?
A: > 100 µM

Q: And the TGI (SNB-78 CNS)?
A: > 100 µM

Q: What about the TGI (SF-268 CNS) of the same molecule?
A: > 100 µM

Q: What about the TGI (ACHN renal) of the same molecule?
A: > 100 µM

Q: What about the TGI (RXF 393 renal) of the same molecule?
A: > 100 µM

Q: What about the TGI (SF-295 CNS) of the same molecule?
A: > 100 µM

Q: And the TGI (DMS 114 small cell lung)?
A: > 100 µM

Q: What about the TGI (SK-MEL-5 melanoma) of the same molecule?
A: > 100 µM

Q: And the TGI (SR leukemia)?
A: > 100 µM

Q: What does the source list for `Cn1c(-c2ccccc2)c/c(=N\NS(C)(=O)=O)c2cc(S(=O)(=O)O)ccc21`?
A: TGI (A549 NSCLC): > 100 µM; TGI (UACC-257 melanoma): > 100 µM; TGI (SNB-78 CNS): > 100 µM; TGI (SF-268 CNS): > 100 µM; TGI (ACHN renal): > 100 µM; TGI (RXF 393 renal): > 100 µM; TGI (SF-295 CNS): > 100 µM; TGI (DMS 114 small cell lung): > 100 µM; TGI (SK-MEL-5 melanoma): > 100 µM; TGI (SR leukemia): > 100 µM

Q: Which results are given for `Clc1ccc(CCn2cncn2)c(Cl)c1`?
A: TGI (A549 NSCLC): > 100 µM; TGI (UACC-257 melanoma): > 100 µM; TGI (SNB-78 CNS): > 100 µM; TGI (SF-268 CNS): > 100 µM; TGI (ACHN renal): > 100 µM; TGI (SF-295 CNS): > 100 µM; TGI (DMS 114 small cell lung): > 100 µM; TGI (SK-MEL-5 melanoma): > 100 µM; TGI (SR leukemia): > 100 µM

Q: With `[O-][N+]1=C(c2ccccc2)COc2ccccc21` as the molecule, how does the TGI (A549 NSCLC) read?
A: > 100 µM

Q: And the TGI (UACC-257 melanoma)?
A: > 100 µM

Q: What about the TGI (SNB-78 CNS) of the same molecule?
A: > 100 µM

Q: What about the TGI (SF-268 CNS) of the same molecule?
A: > 100 µM

Q: What about the TGI (ACHN renal) of the same molecule?
A: > 100 µM

Q: What about the TGI (RXF 393 renal) of the same molecule?
A: > 100 µM

Q: What about the TGI (SF-295 CNS) of the same molecule?
A: > 100 µM

Q: And the TGI (DMS 114 small cell lung)?
A: > 100 µM

Q: What about the TGI (SK-MEL-5 melanoma) of the same molecule?
A: > 100 µM

Q: And the TGI (SR leukemia)?
A: > 100 µM

Q: What does the source list for `Cc1cc2c(=O)cc(-c3ccc(C(=O)O)cc3)oc2c(C(=O)O)c1C`?
A: TGI (A549 NSCLC): > 100 µM; TGI (UACC-257 melanoma): > 100 µM; TGI (SNB-78 CNS): > 100 µM; TGI (ACHN renal): > 100 µM; TGI (SF-295 CNS): > 100 µM; TGI (DMS 114 small cell lung): > 100 µM; TGI (SK-MEL-5 melanoma): > 100 µM; TGI (SR leukemia): > 100 µM

Q: Which results are given for `FC(F)(F)c1ccccc1C=NC12CC3CC(CC(C3)C1)C2`?
A: TGI (A549 NSCLC): > 100 µM; TGI (UACC-257 melanoma): > 100 µM; TGI (SNB-78 CNS): > 100 µM; TGI (SF-268 CNS): > 100 µM; TGI (ACHN renal): > 100 µM; TGI (RXF 393 renal): > 100 µM; TGI (SF-295 CNS): > 100 µM; TGI (DMS 114 small cell lung): > 100 µM; TGI (SK-MEL-5 melanoma): > 100 µM; TGI (SR leukemia): > 100 µM
